Experimental data from patent publication US11147848B2, “Extracts and isolated compounds from Cakile arabica for treatment of ulcer” (KING SAUD UNIVERSITY, priority 2013, dated 2021).
Where “and” joins values, the source holds several entries; their conditions need not be identical. Equal entries are not always repeated.

Test system: absolute ethanol-induced ulcer
Test: absolute ethanol-induced ulcer model (anti-ulcerogenic activity)
Format: in vivo, Wistar rats
Settings: rats, oral, ranitidine 100 mg/kg, TAE 1000 mg/kg, 1 and 2 50 mg/kg; for score (lesion score): scoring system 0-5; for score (lesion score) / No. of ulcers / ulcer index: n = 6; for No. of ulcers / ulcer index: mean ± SD
Method: Evaluation of the anti-ulcerogenic activity was carried out using absolute ethanol-induced ulcer model as described by Muthu et al. Int. J. Pharm. Pharm. Sci. 2013, 5, Suppl1, 269-272.
About 30 Wistar rats were used, they divided into 5 groups each of 6 rats. Group 1 received the vehicle and served as control group, group 2 received ranitidine (100 mg/kg) and served as standard group, groups 3 received the total alcohol extract of the plant under investigation at a dose of 1000 mg/kg. groups 4 and 5 received the isolated compounds 1 and 2 at dose 50 mg/kg respectively.
Rats of all groups were fasted for 24 h then all medications were administered orally. One hour after treatment, the animals received an oral dose of absolute ethanol (1 ml/200 g) and then sacrificed one hour later, by ether inhalation, the stomachs were rapidly removed, opened along their greater curvature and gently rinsed under running tap water.
Number of lesions in the glandular part of the stomach were measured under an illuminated magnifying microscope (10×). Long lesions were counted and their lengths were measured. Petechial lesions were counted, and then each five petechial lesions were taken as 1 mm of ulcer.
The lesion scores: the mucosal lesions were quantified by the scoring system (0-5) 0=no damage, 1=Local edema and inflammation without ulcers; 2=One ulcer without inflammation; 3=one to two ulcers with inflammation & lesion diameter <1 cm; 4=More than two ulcers with lesion diameter 1-2 cm; 5=Sever ulceration with lesion diameter >2 cm.
Ulcer index To calculate the ulcer index (mm), the sum of the total length of long ulcers and petechial lesions in each group of rats was divided by its number. The curative ratio was determined according to the formula: % Protection of control ulcer=Control UI−Test UI/Control UI×100

For `CCCCCCCCCCCCCCCCCCCCCCCC(=O)O` [Compound 1, tetracosanoic acid], the “score (lesion score)” value was 1, the “% protection of control ulcer” value was 80% and the No. of ulcers was 2 ± 2.74. The ulcer index was 2.6 ± 3.58 mm.
`CCCCOC(=O)C(O)CCC(=O)O` (stereo not shown) [Compound 2, 4-hydroxy-5-n-butoxy-5-oxopentanoic acid] was tested, and the “score (lesion score)” value was 2, the “% protection of control ulcer” value was 55.5% and 55.3% and the No. of ulcers was 3.6± 2.97. The ulcer index was 5.8 ± 3.42 mm.
With `CNC(=C[N+](=O)[O-])NCCSCc1ccc(CN(C)C)o1` [Ranitidine, ranitidine, reference compound] the “score (lesion score)” value was 2.2, the “% protection of control ulcer” value was 46.2% and the “% protection of control ulcer” value (listed as ranitidine) was 46.2% and 44.6%. The No. of ulcers was 7.2 ± 0.84 and the ulcer index was 7 ± 1.58 mm.
